“And” between values parts separate entries of the source, which are not always exact repeats. Equal values may be shown once.
Legend:
alpha2A (h) = target: T1, alpha2A (h) (Homo sapiens, UniProt P08913); test: In vitro CEREP profiling, alpha2A (h) (antagonist radioligand); type: binding; conditions: test compound 10 uM
T1 construct: purchased Eurofins Cerep (SafetyScreen44), recognised from the panel format
T1 sequence (P08913 1-465): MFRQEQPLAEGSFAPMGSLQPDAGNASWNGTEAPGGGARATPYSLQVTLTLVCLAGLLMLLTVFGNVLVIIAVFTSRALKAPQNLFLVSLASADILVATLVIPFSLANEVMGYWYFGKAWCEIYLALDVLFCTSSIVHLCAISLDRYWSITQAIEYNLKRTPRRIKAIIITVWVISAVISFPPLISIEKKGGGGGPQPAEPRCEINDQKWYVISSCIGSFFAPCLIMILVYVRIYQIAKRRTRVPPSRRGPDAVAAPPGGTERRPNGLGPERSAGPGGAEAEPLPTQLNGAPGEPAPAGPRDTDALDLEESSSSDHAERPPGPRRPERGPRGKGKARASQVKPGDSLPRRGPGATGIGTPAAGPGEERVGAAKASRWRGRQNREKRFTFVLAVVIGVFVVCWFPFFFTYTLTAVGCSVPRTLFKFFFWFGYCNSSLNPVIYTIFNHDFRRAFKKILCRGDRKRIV
Source text: (§1) Supplement media-1.zip/Safety_Panel_Profile.csv, table | column: perc_inhibition

[1] = system: Ca2+ channel (L, dihydropyridine site); test: In vitro CEREP profiling, Ca2+ channel (L, dihydropyridine site) (antagonist radioligand); type: binding; conditions: test compound concentration 10 uM
Source text: as §1

alpha1A (h) = target: T2, alpha1A (h) (Homo sapiens, UniProt P35348); test: In vitro CEREP profiling, alpha1A (h) (antagonist radioligand); type: binding; conditions: test compound 10 uM
T2 construct: purchased Eurofins Cerep (SafetyScreen44), recognised from the panel format
T2 sequence (P35348 1-466): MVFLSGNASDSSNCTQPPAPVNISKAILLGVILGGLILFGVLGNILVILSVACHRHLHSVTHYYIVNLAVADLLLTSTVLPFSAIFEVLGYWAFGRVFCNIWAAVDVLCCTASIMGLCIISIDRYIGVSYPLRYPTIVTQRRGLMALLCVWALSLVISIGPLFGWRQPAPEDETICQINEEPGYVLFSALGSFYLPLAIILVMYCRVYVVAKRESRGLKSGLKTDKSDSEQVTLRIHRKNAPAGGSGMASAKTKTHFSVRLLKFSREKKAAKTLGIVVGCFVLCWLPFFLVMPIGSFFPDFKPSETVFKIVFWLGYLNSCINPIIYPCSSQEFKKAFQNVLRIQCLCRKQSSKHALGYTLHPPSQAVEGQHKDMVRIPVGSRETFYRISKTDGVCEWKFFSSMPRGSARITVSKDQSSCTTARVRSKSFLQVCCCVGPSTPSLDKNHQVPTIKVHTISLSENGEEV
Source text: as §1

Protein binding = type: in vitro ADME
Source text: Supplement media-1.zip/Protein_Binding.csv, table | column: fu; perc_bound; perc_free; perc_recovered

M1 (h) = target: T3, M1 (h) (Homo sapiens, UniProt P11229); test: In vitro CEREP profiling, M1 (h) (antagonist radioligand); type: binding; conditions: test compound concentration 10 uM
T3 construct: purchased Eurofins Cerep (SafetyScreen44), recognised from the panel format
T3 sequence (P11229 1-460): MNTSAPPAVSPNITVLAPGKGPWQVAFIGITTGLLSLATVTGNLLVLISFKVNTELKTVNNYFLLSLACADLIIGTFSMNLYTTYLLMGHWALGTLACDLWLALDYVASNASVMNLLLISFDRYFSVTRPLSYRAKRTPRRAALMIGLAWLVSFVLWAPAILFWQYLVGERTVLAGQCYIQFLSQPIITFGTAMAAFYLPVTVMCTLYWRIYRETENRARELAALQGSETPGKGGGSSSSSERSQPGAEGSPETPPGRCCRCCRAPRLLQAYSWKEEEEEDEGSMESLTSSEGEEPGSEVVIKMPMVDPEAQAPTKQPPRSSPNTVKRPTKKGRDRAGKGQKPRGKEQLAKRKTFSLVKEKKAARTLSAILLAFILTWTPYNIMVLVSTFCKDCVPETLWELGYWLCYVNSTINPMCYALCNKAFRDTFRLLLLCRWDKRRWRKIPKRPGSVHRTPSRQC
Source text: as §1

[2] = In vitro dog hepatocyte stability; type: in vitro ADME
Source text: Supplement media-1.zip/Hepatocyte_Stability.csv, table | column: clint; t_half

[3] = target: T4, N neuronal alpha4beta2 (h) (Homo sapiens, UniProt P17787+P43681); test: In vitro CEREP profiling, N neuronal alpha4beta2 (h) (agonist radioligand); type: binding; conditions: test compound concentration 10 uM
T4 construct: purchased Eurofins Cerep (SafetyScreen44), recognised from the panel format
T4 sequence (P43681 29-627 limits assumed): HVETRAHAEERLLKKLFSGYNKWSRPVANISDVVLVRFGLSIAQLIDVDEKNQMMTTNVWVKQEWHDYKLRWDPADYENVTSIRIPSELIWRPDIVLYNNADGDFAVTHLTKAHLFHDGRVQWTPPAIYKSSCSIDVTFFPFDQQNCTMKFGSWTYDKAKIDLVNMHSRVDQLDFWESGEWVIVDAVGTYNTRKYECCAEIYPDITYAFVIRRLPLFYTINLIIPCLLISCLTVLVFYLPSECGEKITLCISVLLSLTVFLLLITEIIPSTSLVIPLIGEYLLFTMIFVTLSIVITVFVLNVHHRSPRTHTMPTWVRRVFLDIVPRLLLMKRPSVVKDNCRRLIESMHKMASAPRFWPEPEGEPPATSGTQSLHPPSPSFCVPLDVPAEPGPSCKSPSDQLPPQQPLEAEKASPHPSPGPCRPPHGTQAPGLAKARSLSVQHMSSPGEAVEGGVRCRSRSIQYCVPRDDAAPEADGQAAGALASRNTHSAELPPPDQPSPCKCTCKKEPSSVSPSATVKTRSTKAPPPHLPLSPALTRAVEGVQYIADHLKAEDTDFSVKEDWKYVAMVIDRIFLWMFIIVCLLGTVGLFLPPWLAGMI
T4 sequence (P17787 26-502): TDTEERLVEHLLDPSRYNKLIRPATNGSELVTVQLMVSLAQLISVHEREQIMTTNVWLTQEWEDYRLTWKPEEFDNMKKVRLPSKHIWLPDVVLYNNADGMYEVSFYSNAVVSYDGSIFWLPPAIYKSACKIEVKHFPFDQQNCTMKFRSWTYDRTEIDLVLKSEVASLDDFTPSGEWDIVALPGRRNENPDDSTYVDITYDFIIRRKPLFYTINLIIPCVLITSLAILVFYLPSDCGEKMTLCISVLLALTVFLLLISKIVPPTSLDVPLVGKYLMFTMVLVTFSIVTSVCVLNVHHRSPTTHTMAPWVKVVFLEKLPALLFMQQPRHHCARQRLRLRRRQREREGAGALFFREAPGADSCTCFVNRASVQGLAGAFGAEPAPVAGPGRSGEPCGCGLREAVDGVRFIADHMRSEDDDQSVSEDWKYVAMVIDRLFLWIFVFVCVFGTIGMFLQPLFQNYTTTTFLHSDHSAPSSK
Source text: as §1

D1 (h) = target: T5, D1 (h) (Homo sapiens, UniProt P21728); test: In vitro CEREP profiling, D1 (h) (antagonist radioligand); type: binding; conditions: test compound 10 uM
T5 construct: purchased Eurofins Cerep (SafetyScreen44), recognised from the panel format
T5 sequence (P21728 whole entry): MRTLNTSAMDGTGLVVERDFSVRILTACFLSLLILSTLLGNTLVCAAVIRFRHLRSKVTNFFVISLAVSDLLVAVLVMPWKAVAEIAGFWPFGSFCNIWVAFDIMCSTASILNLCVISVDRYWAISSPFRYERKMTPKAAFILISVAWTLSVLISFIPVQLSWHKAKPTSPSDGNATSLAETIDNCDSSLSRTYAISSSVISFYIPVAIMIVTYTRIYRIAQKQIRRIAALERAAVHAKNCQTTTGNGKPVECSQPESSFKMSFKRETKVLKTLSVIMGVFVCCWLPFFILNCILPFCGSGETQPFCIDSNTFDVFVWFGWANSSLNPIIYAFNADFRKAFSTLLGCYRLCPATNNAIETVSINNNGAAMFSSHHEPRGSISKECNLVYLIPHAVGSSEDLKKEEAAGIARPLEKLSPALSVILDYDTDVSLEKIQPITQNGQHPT
Source text: as §1

Na+ channel (site 2) = test: In vitro CEREP profiling, Na+ channel (site 2) (antagonist radioligand); type: binding; conditions: test compound concentration 10 uM
Source text: as §1

5-HT1A (h) = target: T6, 5-HT1A (h) (Homo sapiens, UniProt P08908); test: In vitro CEREP profiling, 5-HT1A (h) (agonist radioligand); type: binding; conditions: test compound concentration 10 uM
T6 construct: purchased Eurofins Cerep (SafetyScreen44), recognised from the panel format
T6 sequence (P08908 1-422): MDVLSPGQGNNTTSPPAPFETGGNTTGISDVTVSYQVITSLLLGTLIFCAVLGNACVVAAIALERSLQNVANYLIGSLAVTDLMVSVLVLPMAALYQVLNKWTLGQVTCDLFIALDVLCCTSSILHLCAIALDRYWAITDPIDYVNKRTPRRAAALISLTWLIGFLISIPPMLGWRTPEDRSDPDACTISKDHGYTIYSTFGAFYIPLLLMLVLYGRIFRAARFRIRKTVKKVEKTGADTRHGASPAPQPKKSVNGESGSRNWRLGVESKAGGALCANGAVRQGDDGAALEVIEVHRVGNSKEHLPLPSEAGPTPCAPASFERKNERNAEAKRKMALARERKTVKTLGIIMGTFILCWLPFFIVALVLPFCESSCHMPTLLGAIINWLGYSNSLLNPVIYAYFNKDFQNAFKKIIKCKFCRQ
Source text: as §1

[4] = Hepatic microsomal stability, HLM; type: in vitro ADME, human; conditions: for perc_remaining_no_cofactor: no cofactor
NMDA = test: In vitro CEREP profiling, NMDA (antagonist radioligand); type: binding
Source text: as §1

[5] = read-out: perc_inhibition (% inhibition of the binding of a ligand specific for each target)
[6] = In vitro dog plasma protein binding
[7] = In vitro fetal calf serum protein binding
[8] = In vitro human plasma protein binding
[9] = In vitro mouse plasma protein binding
[10] = In vitro rat plasma protein binding
[11] = In vitro human liver microsomal stability

Row | Structure (SMILES) | perc_inhibition (% inhibition of the binding of a ligand specific for each target) [1] [%] | perc_bound (Protein binding; [6]) [%] | perc_free (Protein binding; [6]) [%] | perc_recovered (Protein binding; [6]) [%] | fu (Protein binding; [7]) | perc_bound (Protein binding; [7]) | perc_free (Protein binding; [7]) | perc_recovered (Protein binding; [7]) | fu (Protein binding; [8]) | perc_bound (Protein binding; [8]) | perc_free (Protein binding; [8]) | perc_recovered (Protein binding; [8]) | fu (Protein binding; [9]) | perc_bound (Protein binding; [9]) | perc_free (Protein binding; [9]) | perc_recovered (Protein binding; [9]) | fu (Protein binding; [10]) | perc_bound (Protein binding; [10]) | perc_free (Protein binding; [10]) | perc_recovered (Protein binding; [10]) | further results
1 | CC(C)C(Nc1ncnc2[nH]c(C(=O)NC3CCN(C)C3)cc12)c1ccc2c(c1)S(=O)(=O)CCC2 (stereo not drawn) [ASAP-0011198] | -6 | 83.5 | 16.5 | 87.93 | 0.173 | 86.0% and 82.7% | 14.0% and 17.3% | 61.17% and 107.7% | 0.271 | 74.5% and 72.9% | 25.5% and 27.1% | 81.11% and 116.7% | 0.184 | 90.1% and 81.6% | 9.91% and 18.4% | 88.65% and 93.8% | 0.164 | 87.5% and 83.6% | 12.5% and 16.4% | 93.33% and 104.0% | inhibition at 10 µM (alpha2A (h); [5]): 6%; inhibition at 10 µM (alpha1A (h); [5]): 38%; fraction unbound (Protein binding; bovine, fetal calf serum, In vitro fetal calf serum protein binding): 0.14; fraction unbound (Protein binding; dog, plasma, In vitro dog plasma protein binding): 0.165; fraction unbound (Protein binding; human, plasma, In vitro human plasma protein binding): 0.255; fraction unbound (Protein binding; mouse, plasma, In vitro mouse plasma protein binding): 0.099; fraction unbound (Protein binding; rat, plasma, In vitro rat plasma protein binding): 0.125; inhibition at 10 µM (M1 (h); [5]): 17%; t_half [2]: > 231.0 min; hepatocyte CLint ([2]; hepatocytes): < 3 µL/min/1e6 cells; inhibition at 10 µM [3, 5]: -2%; inhibition at 10 µM (D1 (h); [5]): -3%; perc_inhibition (% inhibition of the binding of a ligand specific for each target) (Na+ channel (site 2)): 16%; inhibition at 10 µM (5-HT1A (h); [5]): 14%; clearance (metabolic stability), in words ([4]; HLM/MLM): low clearance; perc_remaining [4, 11]: 70.0%; t_half [4, 11]: 83.8 min; perc_remaining_no_cofactor [4, 11]: 106.0%; microsomal CLint ([4]; liver microsomes, In vitro human liver microsomal stability): 20 µL/min/mg; perc_inhibition (% inhibition of the binding of a ligand specific for each target) (NMDA; test compound concentration 10 uM): 1%
2 | COc1ccc([C@H](Cc2nnn[nH]2)NC(=O)c2ncnc3[nH]ccc23)cc1 [ASAP-0015381] | -22 | 89.4 | 10.6 | 90.64 | 0.061 | 93.9% | 6.07% | 101.6% | 0.01 | 99.0% | 1.01% | 102.0% | 0.306 | 69.4% | 30.6% | 84.29% | 0.047 | 95.3% | 4.69% | 100.2% | perc_inhibition (% inhibition of the binding of a ligand specific for each target) (alpha2A (h)): -1%; perc_inhibition (% inhibition of the binding of a ligand specific for each target) (alpha1A (h)): -7%; fu (Protein binding; [6]): 0.106; perc_inhibition (% inhibition of the binding of a ligand specific for each target) (M1 (h)): -4%; clint [2]: < 3.0 uL/min/1E6 cells; t_half [2]: > 231.0 min; perc_inhibition (% inhibition of the binding of a ligand specific for each target) [3]: 4%; perc_inhibition (% inhibition of the binding of a ligand specific for each target) (D1 (h)): -18%; perc_inhibition (% inhibition of the binding of a ligand specific for each target) (Na+ channel (site 2)): -3%; perc_inhibition (% inhibition of the binding of a ligand specific for each target) (5-HT1A (h)): 5%; clint [4, 11]: 2.0 µL/min/mg; perc_remaining [4, 11]: 105.597%; t_half [4, 11]: 1085.642 min; perc_remaining_no_cofactor [4, 11]: 84.68%; perc_inhibition (% inhibition of the binding of a ligand specific for each target) (NMDA; test compound 10 uM): 9%

From paper doi:10.1101/2024.08.19.608619, “Discovery of potent SARS-CoV-2 nsp3 macrodomain inhibitors uncovers lack of translation to cellular antiviral response” (bioRxiv, 2024)
